Laboratory results from patent US11667675B2, “MASP inhibitory compounds and uses thereof” (Bayer Aktiengesellschaft, priority 2019, dated 2023).
Where two headings read alike, the source gives them in different places. Bridge positions count the residues as written; N and C are the ends. Square brackets hold non-standard residues; d marks the D form. Peptide text beside a SMILES is read from it. Oic = O=C(O)[C@@H]1C[C@@H]2CCCC[C@@H]2N1; Pen = CC(C)(S)[C@H](N)C(=O)O; ΔPro = O=C(O)[C@@H]1C=CCN1; Sar = CNCC(=O)O

Experiments:
human MASP2 = molecular target: T1, human MASP2 (Homo sapiens, UniProt O00187); assay: Biochemical human MASP2 assay (FRET substrate); conditions: average IC50
T1 construct: Ig-kappa secretion signal (N, cleaved yes); made in house; host or cells: HEK293 (ATCC No. CRL-1573)
Text: (§1) 2.1 Recombinant Expression and Protein Production of Recombinant Human MASP1 and MASP2 Active Proteases.
(§2) The MASP1 or MASP2 expression vectors were transfected into the HEK293 (ATCC No. CRL-1573) cell line using Lipofectamine LTX® Reagent (Thermo-Fischer), as described by the manufacturer. […] The MASP1 and MASP2 proteins were purified from the conditioned media by affinity chromatography on Ni-NTA Superflow resin (Qiagen) as described by the manufacturer.
2.3 Biochemical Human MASP2 Assay
(§3) Recombinant human MASP2 enzyme produced in the HEK 293 cells was diluted in the reaction buffer (50 mM HEPES pH 8,0; 100 mM NaCl; 0.01% CHAPS; 0.5 mM Gluthathione) to the concentration of 20 nM and 25 μl was transferred into each single well of 384-well white microtiter plate (Greiner Bio One 781075). 1 μl of the inhibitor compound solution (dissolved in DMSO, at the corresponding concentration) or pure DMSO as a control was added to the same wells. […] The microtiter plate was incubated for 60-120 min at the temperature of 32 C. The increase of fluorescence intensity was measured in appropriate fluorescence plate reader (e.g. TECAN Ultra) using excitation wavelength of 340 nm and emission wavelength of 490 nm. IC50 values were calculated from percentage of inhibition of human MASP2 activity as a function of test compound concentration.

Human C3-[…] = assay: C3 deposition assay, human serum on mannan-coated plates; assay type: biochemical
Experimental: 3. C3 Deposition Assay (Human, Rat, Mouse, Dog, Mini-Pig)
The C3 deposition assay was conducted essentially as described (reference). Multi well plates (Greiner-Nunc 384 Maxi Sorp #464718) were coated over night with Mannan from Saccharomyces cerevisiae (Sigma M7504, 10 μg/mL in 0.05 M carbonate-bicarbonate buffer, pH 9.6) at 4° C. Wells were washed three times with TBS and subsequently incubated for 2 hours with 50 μL of 1% bovine serum albumin (BSA) in Tris-buffered saline (TBS) at 37° C. in order to block non-specific binding. After this step and each of the following incubation steps wells were washed three times with C3 wash buffer (TBS; 0.05% Tween 20; 5 mM CaCl2). […] When appropriately developed the color reaction was stopped by addition of 25 μL of stop solution (Sigma S5814) and quantified on a photometer by measuring absorption at a wavelength of 450 nm. Antibodies were diluted in C3 wash buffer supplemented with 0.5% BSA.

human MASP1 = molecular target: T2, human MASP1 (Homo sapiens, UniProt P48740); assay: Biochemical human MASP1 assay (FRET substrate); conditions: average IC50
T2 construct: Ig-kappa secretion signal (N, cleaved yes); made in house; host or cells: HEK293 (ATCC No. CRL-1573)
T2 sequence (P48740 297-448): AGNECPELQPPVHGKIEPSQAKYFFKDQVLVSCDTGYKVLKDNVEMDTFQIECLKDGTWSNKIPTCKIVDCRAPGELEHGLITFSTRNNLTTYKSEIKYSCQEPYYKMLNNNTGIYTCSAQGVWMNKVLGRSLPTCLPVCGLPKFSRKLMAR
T2 sequence (P48740 449-699): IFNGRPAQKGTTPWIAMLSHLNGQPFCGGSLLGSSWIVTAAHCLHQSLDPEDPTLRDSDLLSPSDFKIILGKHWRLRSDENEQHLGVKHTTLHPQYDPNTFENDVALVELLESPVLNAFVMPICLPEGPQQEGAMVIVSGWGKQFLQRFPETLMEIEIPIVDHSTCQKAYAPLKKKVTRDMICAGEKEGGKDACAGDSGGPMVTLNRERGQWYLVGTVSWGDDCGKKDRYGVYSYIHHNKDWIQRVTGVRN
Text: as §1, §2
2.2 Biochemical Human MASP1 Assay
as §3, with “MASP1” for “MASP2”, “320” for “340”, “420” for “490”

[1] = average IC50, read-out: Human C3-DEPOSITION SERUM IC50

T1 sequence (O00187 297-444): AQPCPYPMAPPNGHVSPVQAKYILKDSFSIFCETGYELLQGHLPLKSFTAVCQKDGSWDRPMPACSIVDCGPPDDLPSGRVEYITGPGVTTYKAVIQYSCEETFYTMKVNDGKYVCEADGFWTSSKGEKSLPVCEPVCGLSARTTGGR
T1 sequence (O00187 445-686): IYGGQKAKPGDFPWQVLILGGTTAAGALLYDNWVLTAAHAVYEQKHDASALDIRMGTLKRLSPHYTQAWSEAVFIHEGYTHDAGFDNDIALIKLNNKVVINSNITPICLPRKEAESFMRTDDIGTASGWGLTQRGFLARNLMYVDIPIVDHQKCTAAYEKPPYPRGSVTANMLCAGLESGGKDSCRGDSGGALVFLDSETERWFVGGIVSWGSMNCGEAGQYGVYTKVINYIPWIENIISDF

With `CC[C@H](C)[C@H](NC(=O)[C@H](C)N)C(=O)N[C@H]1CSSC(C)(C)[C@@H](C(=O)N[C@H](C(=O)N2CCC[C@H]2C(=O)N[C@@H](CC(=O)O)C(=O)O)[C@@H](C)CC)NC(=O)[C@H]([C@@H](C)CC)NC(=O)[C@@H]2C[C@@H]3CCCC[C@@H]3N2C(=O)[C@@H]2C=CCN2C(=O)[C@H](CC(C)C)NC(=O)[C@H](CO)NC(=O)[C@H](CCCNC(=N)N)NC(=O)[C@H](CO)NC1=O` [Example 237] (H-AICSRSL[ΔPro][Oic]I[Pen]IPD-OH; disulfide 3-11) the IC50 (human MASP2) was 64 nM, the IC50 (Human C3-[…]; [1]) was 14.7 nM and the IC50 (human MASP1) was 9.3 nM.
Molecule “AIC+SRSLP-(Oic)-I-(Pen)+IPN-OH [Example 418]” has an IC50 (Human C3-[…]; [1]) of 53.9 nM.
For “N-[(5aS,11S,14S,17S,20S,23R,28R,31S,33aS)-31-[(2S)-butan-2-yl]-17-(3-carbamimidamidopropyl)-11-(2,2-dimethylpropyl)-14,20-bis(hydroxymethyl)-27,27-dimethyl-23-({N-[(morpholin-4-yl)acetyl]-L-isoleucyl}amino)-5,10,13,16,19,22,30,33-octaoxooctacosahydro-1H,5H,10H-dipyrrolo[2,1-j:2′,1′][1,2,5,8,11,14,17,20,23,26]dithiaoctaazacyclononacosine-28-carbonyl]-L-isoleucyl-L-prolyl-L-alpha-asparagine [Example 283]”, the IC50 (Human C3-[…]; [1]) was 69.8 nM.
With “((N-Me)G)-IC+SRSLP-(Oic)-I-(Pen)+I-((5-Azaspiro[2.4]heptane-1-carboxylic acid)OH [Example 164]” the IC50 (Human C3-[…]; [1]) was 81.6 nM.
In the case of “((N-Me)G)-IC+SRSLP-(Oic)-I-(Pen)+IPD-NH2 [Example 165]”, the IC50 (Human C3-[…]; [1]) is reported as 36 nM.
For “AIC+SRS-((tBu)A)-PPI-((N-Me)C)+IPD-NH2 (HCl Salt) [Example 30]”, the IC50 (Human C3-[…]; [1]) was 36.1 nM.
In the case of “IC+SRSLP-(Oic)-I-(Pen)+IPD-OH [Example 347]”, the IC50 (Human C3-[…]; [1]) is reported as 151 nM.
With `CC[C@H](C)[C@H](NC(=O)CNC)C(=O)N[C@H]1CSSC(C)(C)[C@@H](C(=O)N[C@H](C(=O)N2CCC[C@H]2C(N)=O)[C@@H](C)CC)NC(=O)[C@H]([C@@H](C)CC)NC(=O)[C@@H]2C[C@@H]3CCCC[C@@H]3N2C(=O)[C@@H]2CCCN2C(=O)[C@H](CC(C)C)NC(=O)[C@H](CO)NC(=O)[C@H](CCCNC(=N)N)NC(=O)[C@H](CO)NC1=O` [Example 376] (H-[Sar]ICSRSLP[Oic]I[Pen]IP-NH2; disulfide 3-11) the IC50 (human MASP2) was 35 nM, the IC50 (Human C3-[…]; [1]) was 13.8 nM and the IC50 (human MASP1) was 1.1 nM.
With `CC[C@H](C)[C@@H]1NC(=O)[C@@H]2CCCN2C(=O)[C@@H]2CCCN2C(=O)[C@H](CC(C)(C)C)NC(=O)[C@H](CO)NC(=O)[C@H](CCCNC(=N)N)NC(=O)[C@H](CO)NC(=O)[C@@H](NC(=O)[C@@H](NC(=O)C(C)(C)CN)[C@@H](C)CC)CSSC(C)(C)[C@@H](C(=O)N[C@H](C(=O)N2CCC[C@H]2C(=O)N[C@@H](CC(=O)O)C(N)=O)[C@@H](C)CC)NC1=O` [Example 166, (3-Amino-2,2-dimethylpropionic acid)-IC+SRS-((tBu)A)-PPI-(Pen)+IPD-NH2] the IC50 (Human C3-[…]; [1]) was 33.4 nM and the IC50 (human MASP1) was 4.2 nM.
“(2-Hydroxyacetyl)-IC+SRS-((tBu)A)-PPI-(Pen)+IPD-NH2 [Example 300]” showed an IC50 (Human C3-[…]; [1]) of 59.8 nM.
For `CC[C@H](C)[C@H](NC(=O)[C@@H]1CSSC[C@H](NC(=O)[C@@H](NC(=O)[C@@H](N)C2CCOCC2)[C@@H](C)CC)C(=O)N[C@@H](CO)C(=O)N[C@@H](CCCNC(=N)N)C(=O)N[C@@H](CO)C(=O)N[C@@H](CC(C)C)C(=O)N2CCC[C@H]2C(=O)N2[C@@H](C[C@@H]3CCCC[C@@H]32)C(=O)N[C@@H]([C@@H](C)CC)C(=O)N1)C(=O)O` (single isomer, unassigned) [Example 184], the IC50 (human MASP2) was 200 nM, the IC50 (Human C3-[…]; average IC50, read-out: Human C3-[…] IC50) was 43 nM and the IC50 (human MASP1) was 4.7 nM.
